Data reported in BindingDB's records for doi:10.1111/j.1747-0285.2012.01416.x (University of California San Diego, 2012).

Target: Cruzipain (Trypanosoma cruzi, UniProt P25779)
Assay: Enzymatic Assay
Description: Enzymatic inhibition using cruzain.

Chain of Cruzipain (P25779 whole entry): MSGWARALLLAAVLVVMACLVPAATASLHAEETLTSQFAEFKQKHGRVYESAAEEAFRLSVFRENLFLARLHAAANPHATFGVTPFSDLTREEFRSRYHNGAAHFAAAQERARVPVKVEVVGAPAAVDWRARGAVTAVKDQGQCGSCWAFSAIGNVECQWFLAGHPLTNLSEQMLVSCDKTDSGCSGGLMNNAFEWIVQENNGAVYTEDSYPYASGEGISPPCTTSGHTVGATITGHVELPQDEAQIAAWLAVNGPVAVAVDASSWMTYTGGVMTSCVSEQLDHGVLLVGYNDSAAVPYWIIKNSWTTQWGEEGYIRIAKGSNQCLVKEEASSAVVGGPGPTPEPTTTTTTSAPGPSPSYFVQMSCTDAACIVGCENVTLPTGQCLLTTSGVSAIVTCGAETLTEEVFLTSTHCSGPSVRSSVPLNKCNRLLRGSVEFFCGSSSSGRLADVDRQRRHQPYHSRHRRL

| SMILES | IC50 |
| --- | --- |
| Cn1ccc(=Nc2ccc(NC(=O)c3ccc(N=c4ccn(C)c5ccc([N+](=O)[O-])cc45)cc3)cc2)cc1 [4-[(1-methyl-6-nitro-quinolin-4-ylidene)amino]-N-[4-[(1-methylpyridin-4-ylidene)amino]phenyl]benzamide] | 63 µM |
| CO[C@H]1[C@@H](OC(=O)c2ccc(C)[nH]2)[C@@H](O)C(Oc2ccc3c(O)c(NC(=O)c4ccc(O)c(CC=C(C)C)c4)c(=O)oc3c2Cl)OC1(C)C (some centres not stated) [NSC227186] | 16 µM |
